In paper PMC8647499, “Preclinical evaluation of strasseriolides A–D, potent antiplasmodial macrolides isolated from Strasseria geniculata CF-247,251” (Malaria Journal, 2021):

Columns and labels:
[1] = tested on: Plasmodium falciparum strain 3D7 whole parasites; set-up: method as in PMID 32808790; conditions: in vitro, read-out: IC50 against Plasmodium falciparum strain 3D7; cited from earlier work
[2] = Metabolic stability assay in human liver microsomes; format: in vitro ADME; conditions: for half-life: pH 7.4, 1 mg/mL protein; for Clearance Category: ranked by CLint
Procedure: Pretreatment of the 96-well ABgen-0765 reaction plates was the same as previously described above. Two microlitres (2 µL) of compounds (previously dissolved in DMSO) were pre-incubated with 98 µL of cofactor/buffer solution (0.1 M phosphate buffer of pH 7.4, 100 mM K3PO4, 3.3 mM MgCl2, 3.3 mM G6P, 1.3 mM NADPH, and 0.4 u/mL G6PDH) at 37 °C for 10 min. The reactions were then initiated by the addition of 100 µL of HLM solution (at final protein concentration of 1 mg/mL), after which they were stopped at pre-determined incubation times of 0, 10, 15, 30, 45 and 60 min by adding 90 µL acetonitrile containing internal LC–MS–MS standards and shaking at 180 Hz. The samples were centrifuged to sediment the protein precipitates and the supernatants were analysed by LC–MS–MS as previously described above. The integration of each analyte (the […]) and internal standard peak area was performed by the Analyst® software version 1.5.2 and used to calculate the percentage of remaining compound at each incubation time. The natural logarithm of the percentage of the remaining parent compound was plotted against the incubation time and used to calculate the half-life by the following equation:
Half-life (T ½ min) = 0.693/k, where k is the slope of a plot of the natural log of the percentage parent compound remaining vs. time.
The intrinsic clearance (CLint) was determined by the equation: CLint
=Ln2/t1/2min∗volumeincubationmL/microsomalproteinmg∗45MPPGL1500ghumanliver/70kghumanbodyweightj
Units for CLint were expressed as mL/min/mg microsomal protein and MPPGL = mg microsomal protein per gram liver.

[3] = Solubility in the formulation vehicle; format: physicochemical; conditions: at 25 mg/Kg dosage, about 5.53 mM in 200 µL vehicle; preliminary unpublished data

| Compound | IC50 [1] [nM] | half-life [2] [min] | Clearance Category [2] | soluble in the formulation vehicle [3] [%] |
| --- | --- | --- | --- | --- |
| C/C1=C\[C@H](C)C(=O)C[C@@H](O)/C(C)=C/[C@H](C)C[C@@H](C)CC[C@@H]([C@@H](C)C(=O)O)OC(=O)[C@@H](C)C1 [Strasseriolide C, strasseriolide C] | 123 | 15.9 ± 1.15 | Medium | – |
| C/C1=C\[C@H](C)[C@@H](O)C[C@@H](O)/C(C)=C/[C@H](C)C[C@@H](C)CC[C@@H]([C@@H](C)C(=O)O)OC(=O)[C@@H](C)C1 [Strasseriolide D, strasseriolide D] | 128 | > 60 | Low | 35 |
